Source: ChEMBL document CHEMBL3046860, “Photosynthetic Electron Transport Inhibitory and Herbicidal Activities of 2-(Fluorinated methyl-4-benzylamino-6-methyl)-1, 3, 5-triazines” (J Pestic Sci, 2000)

Columns and labels:
Rotala indica [1] = assay: Pre-emergence herbicidal activity against Rotala indica at 400 g a.i./10a measured after 3 weeks by paddy application test; type: functional
[2] = system: Schoenoplectiella juncoides; assay: Pre-emergence herbicidal activity against Schoenoplectiella juncoides var. Hotarui Ohwi at 400 g a.i./10a measured after 3 weeks by paddy application test; type: functional
Persicaria longiseta [3] = assay: Post-emergence herbicidal activity against Persicaria longiseta at 400 g a.i./10a measured after 3 weeks by foliar application test; type: functional
Pontederia vaginalis [4] = assay: Pre-emergence herbicidal activity against Monochoria vaginalis at 400 g a.i./10a measured after 3 weeks by paddy application test; type: functional
Echinochloa crus-galli [5] = assay: Post-emergence herbicidal activity against Echinochloa crus-galli var. crus-galli at 400 g a.i./10a measured after 3 weeks by foliar application test; type: functional
Echinochloa oryzicola [6] = assay: Pre-emergence herbicidal activity against Echinochloa oryzicola at 400 g a.i./10a measured after 3 weeks by paddy application test; type: functional
Digitaria ciliaris [7] = assay: Post-emergence herbicidal activity against Digitaria ciliaris at 400 g a.i./10a measured after 3 weeks by foliar application test; type: functional
[8] = system: Amaranthus blitum subsp. oleraceus; assay: Pre-emergence herbicidal activity against Amaranthus blitum subsp. Oleraceus at 400 g a.i./10a measured after 3 weeks by soil application test; type: functional
Chenopodium album [9] = assay: Post-emergence herbicidal activity against Chenopodium album at 400 g a.i./10a measured after 3 weeks by foliar application test; type: functional
Echinochloa crus-galli [10] = assay: Pre-emergence herbicidal activity against Echinochloa crus-galli var. crus-galli at 400 g a.i./10a measured after 3 weeks by soil application test; type: functional
Digitaria ciliaris [11] = assay: Pre-emergence herbicidal activity against Digitaria ciliaris at 400 g a.i./10a measured after 3 weeks by soil application test; type: functional
Chenopodium album [12] = assay: Pre-emergence herbicidal activity against Chenopodium album at 400 g a.i./10a measured after 3 weeks by soil application test; type: functional
[13] = biological target: Photosystem II D1 protein (psbA) (Spinacia oleracea); assay: Inhibition of photosynthetic electron transport activity in Spinacia oleracea thylakoids assessed as inhibition of oxygen release
Echinochloa oryzicola [14] = assay: Pre-emergence herbicidal activity against Echinochloa oryzicola at 800 g a.i./10a measured after 3 weeks by paddy application test; type: functional
[15] = system: Schoenoplectiella juncoides; assay: Pre-emergence herbicidal activity against Schoenoplectiella juncoides var. Hotarui Ohwi at 800 g a.i./10a measured after 3 weeks by paddy application test; type: functional
Rotala indica [16] = assay: Pre-emergence herbicidal activity against Rotala indica at 800 g a.i./10a measured after 3 weeks by paddy application test; type: functional
Chenopodium album [17] = assay: Pre-emergence herbicidal activity against Chenopodium album at 800 g a.i./10a measured after 3 weeks by soil application test; type: functional
Echinochloa crus-galli [18] = assay: Pre-emergence herbicidal activity against Echinochloa crus-galli var. crus-galli at 800 g a.i./10a measured after 3 weeks by soil application test; type: functional
Pontederia vaginalis [19] = assay: Pre-emergence herbicidal activity against Monochoria vaginalis at 800 g a.i./10a measured after 3 weeks by paddy application test; type: functional
Digitaria ciliaris [20] = assay: Pre-emergence herbicidal activity against Digitaria ciliaris at 800 g a.i./10a measured after 3 weeks by soil application test; type: functional
Persicaria longiseta [21] = assay: Pre-emergence herbicidal activity against Persicaria longiseta at 400 g a.i./10a measured after 3 weeks by soil application test; type: functional
Chenopodium album [22] = assay: Pre-emergence herbicidal activity against Chenopodium album at 100 g a.i./10a measured after 3 weeks by soil application test; type: functional
Digitaria ciliaris [23] = assay: Pre-emergence herbicidal activity against Digitaria ciliaris at 100 g a.i./10a measured after 3 weeks by soil application test; type: functional
Echinochloa crus-galli [24] = assay: Pre-emergence herbicidal activity against Echinochloa crus-galli var. crus-galli at 100 g a.i./10a measured after 3 weeks by soil application test; type: functional
[25] = system: Amaranthus blitum subsp. oleraceus; assay: Pre-emergence herbicidal activity against Amaranthus blitum subsp. Oleraceus at 100 g a.i./10a measured after 3 weeks by soil application test; type: functional

Cc1nc(NCc2ccc(Br)cc2)nc(C(F)(F)F)n1
4%: Activity (Echinochloa crus-galli [5]) | Activity (Echinochloa oryzicola [6])
5%: Activity (Rotala indica [1]) | Activity (Pontederia vaginalis [4]) | Activity [8] | Activity (Echinochloa crus-galli [10]) | Activity (Digitaria ciliaris [11]) | Activity (Chenopodium album [12])
6%: Activity [2] | Activity (Persicaria longiseta [3]) | Activity (Digitaria ciliaris [7]) | Activity (Chenopodium album [9])

Cc1nc(NCc2cccc(Cl)c2)nc(C(F)(F)F)n1
7.21: pI50 [13]

Cc1nc(NCc2ccc(Cl)cc2)nc(C(F)(F)F)n1
4%: Activity (Echinochloa crus-galli [5])
6%: Activity (Rotala indica [1]) | Activity [2] | Activity (Persicaria longiseta [3]) | Activity (Pontederia vaginalis [4]) | Activity (Echinochloa oryzicola [6]) | Activity (Digitaria ciliaris [7]) | Activity [8] | Activity (Chenopodium album [9])
5%: Activity (Digitaria ciliaris [11]) | Activity (Chenopodium album [12])
3%: Activity (Echinochloa crus-galli [10])

Cc1ccc(CNc2nc(C)nc(C(F)(F)F)n2)cc1
6.74: pI50 [13]

Cc1nc(NCc2ccc([N+](=O)[O-])cc2)nc(C(F)(F)F)n1
7.16: pI50 [13]

Cc1nc(C)nc(NCc2ccccc2)n1
6%: Activity (Pontederia vaginalis [19])
0%: Activity [15] | Activity (Persicaria longiseta [3]) | Activity (Echinochloa crus-galli [5]) | Activity (Digitaria ciliaris [7]) | Activity (Chenopodium album [17]) | Activity (Echinochloa crus-galli [18]) | Activity (Chenopodium album [9]) | Activity (Digitaria ciliaris [20])
1%: Activity (Rotala indica [16])
3%: Activity (Echinochloa oryzicola [14])

Cc1nc(NCc2ccccc2)nc(C(F)(F)F)n1
6%: Activity (Pontederia vaginalis [4]) | Activity (Chenopodium album [9]) | Activity (Chenopodium album [12])
2%: Activity (Echinochloa crus-galli [10])
0%: Activity [2]
3%: Activity (Echinochloa crus-galli [5]) | Activity (Echinochloa oryzicola [6]) | Activity (Digitaria ciliaris [11])
4%: Activity (Rotala indica [1]) | Activity (Digitaria ciliaris [7]) | Activity [8]

Cc1ccc(CNc2nc(C)nc(C(F)F)n2)cc1
4%: Activity (Echinochloa crus-galli [5]) | Activity (Echinochloa oryzicola [6]) | Activity (Digitaria ciliaris [7]) | Activity [8] | Activity (Digitaria ciliaris [11])
3%: Activity (Echinochloa crus-galli [10])
5%: Activity (Rotala indica [1]) | Activity [2] | Activity (Pontederia vaginalis [4]) | Activity (Persicaria longiseta [21]) | Activity (Chenopodium album [12])
6%: Activity (Persicaria longiseta [3]) | Activity (Chenopodium album [9])

Cc1nc(NCc2ccc([N+](=O)[O-])cc2)nc(C(F)F)n1
6%: Activity (Rotala indica [1]) | Activity (Persicaria longiseta [3]) | Activity (Chenopodium album [9])
4%: Activity (Echinochloa crus-galli [5]) | Activity (Echinochloa crus-galli [10]) | Activity (Digitaria ciliaris [11])
5%: Activity [2] | Activity (Pontederia vaginalis [4]) | Activity (Echinochloa oryzicola [6]) | Activity (Digitaria ciliaris [7]) | Activity [8] | Activity (Persicaria longiseta [21]) | Activity (Chenopodium album [12])

Cc1nc(CF)nc(NCc2ccccc2)n1
4%: Activity (Persicaria longiseta [3]) | Activity [8]
5%: Activity (Chenopodium album [12])
1%: Activity (Digitaria ciliaris [7]) | Activity (Echinochloa crus-galli [10]) | Activity (Digitaria ciliaris [11])
2%: Activity (Persicaria longiseta [21])
6%: Activity (Chenopodium album [9])
0%: Activity (Rotala indica [1]) | Activity [2] | Activity (Pontederia vaginalis [4]) | Activity (Echinochloa crus-galli [5]) | Activity (Echinochloa oryzicola [6])

Cc1nc(CF)nc(NCc2ccc(Br)cc2)n1
4%: Activity (Echinochloa crus-galli [5]) | Activity (Echinochloa crus-galli [10]) | Activity (Digitaria ciliaris [11])
5%: Activity [2] | Activity (Pontederia vaginalis [4]) | Activity (Echinochloa oryzicola [6]) | Activity (Digitaria ciliaris [7]) | Activity [8] | Activity (Persicaria longiseta [21]) | Activity (Chenopodium album [12])
6%: Activity (Rotala indica [1]) | Activity (Persicaria longiseta [3]) | Activity (Chenopodium album [9])

Cc1nc(CF)nc(NCc2ccc(Cl)cc2)n1
4%: Activity [2] | Activity (Echinochloa crus-galli [5]) | Activity (Digitaria ciliaris [7]) | Activity [8] | Activity (Persicaria longiseta [21])
6%: Activity (Rotala indica [1]) | Activity (Persicaria longiseta [3]) | Activity (Chenopodium album [9])
3%: Activity (Echinochloa crus-galli [10]) | Activity (Digitaria ciliaris [11])
5%: Activity (Pontederia vaginalis [4]) | Activity (Echinochloa oryzicola [6]) | Activity (Chenopodium album [12])

Cc1nc(NCc2ccccc2)nc(C(F)F)n1
4%: Activity (Echinochloa oryzicola [6]) | Activity (Digitaria ciliaris [7]) | Activity [8] | Activity (Digitaria ciliaris [11])
6%: Activity (Persicaria longiseta [3]) | Activity (Pontederia vaginalis [4]) | Activity (Persicaria longiseta [21]) | Activity (Chenopodium album [9]) | Activity (Chenopodium album [12])
3%: Activity (Echinochloa crus-galli [5])
5%: Activity (Rotala indica [1]) | Activity [2] | Activity (Echinochloa crus-galli [10])

Cc1nc(NCc2ccc(Br)cc2)nc(C(F)F)n1
5%: Activity [8] | Activity (Digitaria ciliaris [11])
6%: Activity (Rotala indica [1]) | Activity [2] | Activity (Persicaria longiseta [3]) | Activity (Pontederia vaginalis [4]) | Activity (Echinochloa crus-galli [5]) | Activity (Echinochloa oryzicola [6]) | Activity (Digitaria ciliaris [7]) | Activity (Persicaria longiseta [21]) | Activity (Chenopodium album [9]) | Activity (Chenopodium album [12])
4%: Activity (Echinochloa crus-galli [10])

Cc1nc(NCc2ccc(Cl)cc2)nc(C(F)F)n1
5%: Activity (Echinochloa oryzicola [6]) | Activity [8] | Activity (Digitaria ciliaris [11])
6%: Activity (Rotala indica [1]) | Activity [2] | Activity (Persicaria longiseta [3]) | Activity (Pontederia vaginalis [4]) | Activity (Echinochloa crus-galli [5]) | Activity (Digitaria ciliaris [7]) | Activity (Persicaria longiseta [21]) | Activity (Chenopodium album [9]) | Activity (Chenopodium album [12])
4%: Activity (Echinochloa crus-galli [10])

Cc1nc(NCc2cccc(Cl)c2)nc(C(F)F)n1
3%: Activity (Echinochloa crus-galli [5])
5%: Activity (Rotala indica [1]) | Activity [2] | Activity (Pontederia vaginalis [4]) | Activity (Persicaria longiseta [21]) | Activity (Chenopodium album [12])
6%: Activity (Persicaria longiseta [3]) | Activity (Chenopodium album [9])
4%: Activity (Echinochloa oryzicola [6]) | Activity (Digitaria ciliaris [7]) | Activity [8] | Activity (Echinochloa crus-galli [10]) | Activity (Digitaria ciliaris [11])

CCNc1nc(Cl)nc(NCC)n1 [SIMAZINE]
3%: Activity (Digitaria ciliaris [23])
5%: Activity [25]
2%: Activity (Chenopodium album [22]) | Activity (Echinochloa crus-galli [24])
